Data from patent US7351703B2, “Sulfonylamino carboxylic acid N-arylamides as guanylate cyclase activators” (Sanofi-Aventis Deutschland GmbH, priority 1999, dated 2008).

Legend:
[1] = target: T1, soluble guanylate cyclase (sGC) (Bos taurus, UniProt P16068); assay: Activation of soluble guanylate cyclase (cGMP enzyme immunoassay); format: biochemical; conditions: sGC isolated from bovine lung, stimulation of basal enzyme activity vs solvent control
T1 construct: The sGC employed had been isolated from bovine lung; from tissue; host or cells: bovine lung
T1 sequence (P16068 1-619): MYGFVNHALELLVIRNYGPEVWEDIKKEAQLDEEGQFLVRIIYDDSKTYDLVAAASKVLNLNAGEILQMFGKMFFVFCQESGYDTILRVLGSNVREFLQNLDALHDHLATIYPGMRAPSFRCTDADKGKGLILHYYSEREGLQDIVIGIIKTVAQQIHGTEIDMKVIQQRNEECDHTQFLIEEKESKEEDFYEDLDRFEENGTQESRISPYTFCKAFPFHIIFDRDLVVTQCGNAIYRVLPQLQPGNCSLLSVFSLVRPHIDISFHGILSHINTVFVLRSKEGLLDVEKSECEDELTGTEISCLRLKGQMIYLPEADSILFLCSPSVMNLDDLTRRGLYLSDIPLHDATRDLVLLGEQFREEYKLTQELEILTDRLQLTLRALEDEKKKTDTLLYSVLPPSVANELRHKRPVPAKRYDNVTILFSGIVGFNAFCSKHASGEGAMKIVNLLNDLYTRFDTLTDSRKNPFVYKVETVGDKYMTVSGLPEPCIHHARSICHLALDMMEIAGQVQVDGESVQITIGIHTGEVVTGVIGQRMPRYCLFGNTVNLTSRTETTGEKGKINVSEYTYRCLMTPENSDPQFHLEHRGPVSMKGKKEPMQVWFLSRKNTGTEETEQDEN
T1 sequence (P19687 1-691 partner): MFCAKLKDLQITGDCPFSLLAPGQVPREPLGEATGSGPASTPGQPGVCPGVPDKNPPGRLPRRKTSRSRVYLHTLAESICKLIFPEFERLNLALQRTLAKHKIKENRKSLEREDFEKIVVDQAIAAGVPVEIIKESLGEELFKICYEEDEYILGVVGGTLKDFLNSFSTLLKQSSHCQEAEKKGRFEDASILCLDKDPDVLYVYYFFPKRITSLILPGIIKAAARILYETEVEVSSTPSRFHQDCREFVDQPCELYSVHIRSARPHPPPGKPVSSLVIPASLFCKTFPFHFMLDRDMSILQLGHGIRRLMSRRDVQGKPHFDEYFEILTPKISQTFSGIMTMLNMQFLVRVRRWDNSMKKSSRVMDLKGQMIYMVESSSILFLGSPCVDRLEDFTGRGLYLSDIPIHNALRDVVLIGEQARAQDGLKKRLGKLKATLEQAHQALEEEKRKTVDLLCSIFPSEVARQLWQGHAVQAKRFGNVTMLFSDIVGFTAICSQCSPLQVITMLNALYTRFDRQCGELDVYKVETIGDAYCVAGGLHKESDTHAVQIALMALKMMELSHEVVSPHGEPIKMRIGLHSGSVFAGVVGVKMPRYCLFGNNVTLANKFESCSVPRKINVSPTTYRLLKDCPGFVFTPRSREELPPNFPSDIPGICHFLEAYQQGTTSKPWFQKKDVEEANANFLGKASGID
Experimental: The activation of soluble guanylate cyclase (sGC), which catalyzes the conversion of guanosine triphosphate (GTP) to cyclic guanosine monophosphate (cGMP) and pyrophosphate, by the compounds according to the invention was quantified with the aid of an enzyme immunoassay (EIA) from Amersham. For this, the test substances were first incubated with sGC in microtiter plates and then the quantity of the resulting cGMP was determined.
The sGC employed had been isolated from bovine lung (see Methods in Enzymology, Volume 195, p. 377). The test solutions (100 μl per well) contained 50 mM triethanolamine (TEA) buffer (pH 7.5), 3 mM MgCl2, 3 mM reduced glutathione (GSH), 0.1 mM GTP, 1 mM 3-isobutyl-1-methylxanthine (IBMX), suitably diluted enzyme solution and the test substance or, in the control experiments, solvent. The test substances were dissolved in dimethyl sulfoxide (DMSO) and the solution was diluted with DMSO/water such that the final concentration c of test substance in the test batch had the value indicated below. The DMSO concentration in the test batch was 5% (v/v). The reaction was started by addition of the sGC. The reaction mix was incubated at 37° C. for 15 to 20 minutes and then stopped by ice-cooling and addition of the stop reagent (50 mM EDTA, pH 8.0). An aliquot of 50 μl was taken and employed for the determination of the cGMP content using the acetylation protocol of the Amersham cGMP EIA kit. The absorption of the samples was measured at 450 nm (reference wavelength 620 nm) in a microtiter plate reading apparatus. The cGMP concentration was determined by means of a calibration curve, which was obtained under the same experimental conditions. The activation of the sGC by a test substance is indicated as n-fold stimulation of the basal enzyme activity which was found in the control experiments (with solvent instead of test substance) (calculated according to the formula n-fold stimulation=[cGMP]test substance/[cGMP]control).

SMILES | melting point | n-fold stimulation ([1]; concentration c 100 μM) | n-fold stimulation ([1]; concentration c 25 μM) | n-fold stimulation ([1]; concentration c 10 μM) | n-fold stimulation ([1]; concentration c 50 μM)
O=C(Nc1cccc(Cl)c1)c1cc(Cl)ccc1NS(=O)(=O)c1ccc(Cl)cc1 [Example 10, 5-Chloro-2-(4-chlorophenylsulfonylamino)-N-(3-chlorophenyl)benzamide] | 228 °C | 1.7 n-fold | – | – | –
O=C(Nc1ccc2ccccc2c1)c1cc(Cl)ccc1NS(=O)(=O)c1ccc(Cl)cc1 [Example 12, 5-Chloro-2-(4-chlorophenylsulfonylamino)-N-(2-naphthyl)benzamide] | 211 °C | – | 2.8 n-fold | – | –
O=C(Nc1cc(Cl)cc(Cl)c1)c1cc(Cl)ccc1NS(=O)(=O)c1ccc(F)cc1 [Example 13, 5-Chloro-2-(4-fluorophenylsulfonylamino)-N-(3,5-dichlorophenyl)benzamide] | 250 °C | 1.8 n-fold | – | – | –
CS(=O)(=O)N(c1ccc(NC(=O)c2cc(Cl)ccc2NS(=O)(=O)c2ccc(Cl)cc2)cc1)S(C)(=O)=O [Example 15, 5-Chloro-2-(4-chlorophenylsulfonylamino)-N-(4-(bismethylsulfonylamino)phenyl)benzamide] | 235 °C | – | – | 9.9 n-fold | –
CCOC(=O)c1cc(NC(=O)c2cc(Cl)ccc2NS(=O)(=O)c2ccc(Cl)c(Cl)c2)ccc1Cl [Example 18, Ethyl 2-chloro-5-(5-chloro-2-(3,4-dichlorophenylsulfonylamino)benzoylamino)benzoate] | 202 °C | 3.2 n-fold | – | – | –
O=C(Nc1ccc(OCc2ccccc2)cc1)c1cc(Cl)ccc1NS(=O)(=O)c1ccc(Cl)cc1 [Example 23, 5-Chloro-2-(4-chlorophenylsulfonylamino)-N-(4-(benzyloxy)phenyl)benzamide] | 191 °C | – | 2.2 n-fold | – | –

More lines, now with the values ahead:

melting point | n-fold stimulation ([1]; concentration c 100 μM) | n-fold stimulation ([1]; concentration c 25 μM) | n-fold stimulation ([1]; concentration c 10 μM) | n-fold stimulation ([1]; concentration c 50 μM) | SMILES
210 °C | 1.6 n-fold | – | – | – | O=C(Nc1ccc(Br)cc1)c1cc(Cl)ccc1NS(=O)(=O)c1ccc(Cl)cc1 [Example 9, 5-Chloro-2-(4-chlorophenylsulfonylamino)-N-(4-bromophenyl)benzamide]
190 °C | 1.8 n-fold | – | – | – | COc1ccc(NC(=O)c2cc(Cl)ccc2NS(=O)(=O)c2ccc(Cl)cc2)cc1 [Example 11, 5-Chloro-2-(4-chlorophenylsulfonylamino)-N-(4-methoxyphenyl)benzamide]
185 °C | 1.7 n-fold | – | – | – | CCOC(=O)c1ccc(NC(=O)c2cc(Cl)ccc2NS(=O)(=O)c2ccc(Cl)cc2)cc1 [Example 14, Ethyl 4-(5-chloro-2-(4-chlorophenylsulfonylamino)benzoylamino)benzoate]
188 °C | 4.1 n-fold | – | – | – | CC(C)c1ccc(NC(=O)c2cc(Cl)ccc2NS(=O)(=O)c2ccc(Cl)cc2)cc1 [Example 16, 5-Chloro-2-(4-chlorophenylsulfonylamino)-N-(4-isopropylphenyl)benzamide]
228.5 °C | – | – | – | 8 n-fold | O=C(Nc1ccc(N2CCOCC2)cc1)c1cc(Cl)ccc1NS(=O)(=O)c1ccc(Cl)cc1 [Example 21, 5-Chloro-2-(4-chlorophenylsulfonylamino)-N-(4-(morpholin-4-yl)phenyl)benzamide]
226 °C | – | – | – | 2.4 n-fold | CC(=O)c1ccc(NC(=O)c2cc(Cl)ccc2NS(=O)(=O)c2ccc(Cl)cc2)cc1 [Example 24, 5-Chloro-2-(4-chlorophenylsulfonylamino)-N-(4-acetylphenyl)benzamide]
